# Laboratory results reported in PMC4829596 (Frontiers in Microbiology, 2016).
# Like-named read-outs stand apart in the source and are kept apart here.
# Key:
# S. aureus = experiment: Determination of MIC; type: cell-based, Staphylococcus aureus; settings: Staphylococcus aureus
# Procedure: (§1) Minimal inhibitory concentrations (MICs) of purified compounds and commercially available standards were assessed against S. aureus, C. albicans, P. aeruginosa, K. pneumoniae, E. coli, ESBL K. pneumoniae, ESBL E. coli and the two MRSA strains (B337919 and B335466). Stock solutions of 5 × 10^6 μg/l of p-hydroxybenzaldehyde, and phenyllactic acid were prepared using water. Stock solutions of 1 × 10^8 μg/l indole-3-carboxylic acid, PAA and indole-3-acetic acid were prepared using methanol and diluted with water (working solution of 5 × 10^6 μg/l). Stocks of 1 × 10^6 μg/l of cFP and cPM were dissolved in water. […] Methanol and water were used as control.
# [1] = tested on: MRSA Staphylococcus (S.) aureus B335466; experiment: Determination of MIC; type: cell-based
# Procedure: as §1
# [2] = tested on: MRSA Staphylococcus (S.) aureus B337919; experiment: Determination of MIC; type: cell-based
# Procedure: as §1
# P. aeruginosa = experiment: Determination of MIC; type: cell-based, Pseudomonas aeruginosa; settings: Pseudomonas aeruginosa
# Procedure: as §1
# C. albicans = experiment: Determination of MIC; type: cell-based, Candida albicans; settings: Candida albicans
# Procedure: as §1
# E. coli = experiment: Determination of MIC; type: cell-based, Escherichia coli; settings: Escherichia coli
# Procedure: as §1
# ESBL E. coli = experiment: Determination of MIC; type: cell-based, Escherichia coli; settings: Escherichia coli
# Procedure: as §1
# ESBL K. pneumoniae = experiment: Determination of MIC; type: cell-based, Klebsiella pneumoniae; settings: Klebsiella pneumoniae
# Procedure: as §1
# K. pneumoniae = experiment: Determination of MIC; type: cell-based, Klebsiella pneumoniae; settings: Klebsiella pneumoniae
# Procedure: as §1
# [3] = tested on: human hepatocytic (HepG2) cells; experiment: Cytotoxicity assay, lactate dehydrogenase release; type: cell-based; settings: for % of living HepG2 cells: 24 h, LDH
# Procedure: (§2) Cytotoxicity of the fungal extract and the identified compounds was determined measuring lactate dehydrogenase release using human intestinal epithelial (Caco2) and human hepatocytic (HepG2) cells. […] Cells were seeded into 96-well plates (5 × 10^4 cells per well) and incubated until a confluent cell layer had developed. After discarding of the media cells were incubated with 50 μl of media and 50 μl of fungal extract or compound (final concentration: PAA 2 × 10^6 μg/l, 4FP 2 × 10^6 μg/l, ICA 2 × 10^6 μg/l, IAA 2 × 10^5 μg/l, PLA 2 × 10^6 μg/l, cPM 2 × 10^6μg/l and cFP 2 × 10^6 μg/l) for 24 h at 37°C. […] LDH release was measured according to the manufacturer’s protocol (Sigma–Aldrich, USA).
# [4] = tested on: human intestinal epithelial (Caco2) cells; experiment: Cytotoxicity assay, lactate dehydrogenase release; type: cell-based; settings: for dead cells: at the determined MIC concentrations, Caco2; for % of living Caco2 cells: 24 h, LDH
# Procedure: as §2
# Caco2 cells = experiment: XTT assay, metabolic active cells; type: cell-based, human; settings: for % of metabolic active Caco2 cells: XTT
# Procedure: (§3) In parallel the % of metabolic cells was measured using the XTT [2,3-Bis-(2-methoxy-4-nitro-5-sulfophenyl)-2H-tetra zolium-5-carboxanilide] assay (Thermo Scientific). Briefly, after treatment with the fungal extract or the different compounds cells were incubated with XTT and phenanzine methosulfate (Thermo Scientific) for 2 h. Absorbance was measured at 450 nm and % of metabolic active cells was calculated versus the control sample (media). As controls we incubated the cells without fungal cultures or compound, and with VPA alone.
# HepG2 cells = experiment: XTT assay, metabolic active cells; type: cell-based, human
# Procedure: as §3
# Caco2 and HepG2 cells = type: cell-based; settings: at the determined MIC concentrations; range over compounds and cell lines
# Procedure: as §2
# [5] = ESBL K. pneumoniae, read-out: MIC
Compound,"MIC (S. aureus; S. aureus, read-out: MIC) [µg/mL]","MIC ([1]; MRSA 335, read-out: MIC) [µg/mL]","MIC ([2]; MRSA 337, read-out: MIC) [µg/mL]",MIC (P. aeruginosa) [µg/mL],"MIC (C. albicans; C. albicans, read-out: MIC) [µg/mL]","MIC (E. coli; E. coli, read-out: MIC) [µg/mL]","MIC (ESBL E. coli; ESBL E. coli, read-out: MIC) [µg/mL]",MIC (ESBL K. pneumoniae; [5]) [µg/mL],"MIC (K. pneumoniae; K. pneumoniae, read-out: MIC) [µg/mL]",% of living HepG2 cells ([3]; compound 2mg/ml) [%],dead cells [4] [%],% of living Caco2 cells ([4]; compound 2mg/ml) [%],% of metabolic active Caco2 cells (Caco2 cells; compound 2mg/ml) [%],% of metabolic active HepG2 cells (HepG2 cells; compound 2mg/ml) [%],dead cells (Caco2 and HepG2 cells),other results
"O=Cc1ccc(O)cc1 [4FP, p-hydroxybenzaldehyde]",2000,2500,2500,2500,1000,2500,2500,2500,2500,7.86,25.9,25.94,32.06,57.33,–,metabolic active cells (Caco2 cells; human): 57.3%
"O=C(O)Cc1c[nH]c2ccccc12 [IAA, indole-3-acetic acid]",400,–,–,2000,400,1750,1750,2000,400,–,–,–,–,–,–,"MIC ([1]; MRSA 335): 400 µg/mL; MIC ([1]; MRSA strain B335466, read-out: MIC): 400 µg/mL; MIC ([2]; MRSA 337): 200 µg/mL; MIC ([2]; MRSA strain B337919, read-out: MIC): 200 µg/mL; % of living HepG2 cells ([3]; compound 0.2mg/ml): 7.27 ± 1.77%; % of living Caco2 cells ([4]; compound 0.2mg/ml): 8.61%; % of metabolic active Caco2 cells (Caco2 cells; compound 0.2mg/ml): 103.64%; % of metabolic active HepG2 cells (HepG2 cells; compound 0.2mg/ml): 108.28%"
"O=C(O)c1c[nH]c2ccccc12 [ICA, indole-3-carboxylic acid]",2000,2000,2000,2000,–,1000,1000,2000,2000,4.86,–,8.36,97.59,122.3,3.99–8.61%,–
"O=C(O)Cc1ccccc1 [PAA, phenylacetic acid]",–,–,–,–,–,–,–,–,–,6.99,–,6.53,113.54,122.9,3.99–8.61%,MIC (S. aureus): 2000 µg/mL; MIC [1]: 2000 µg/mL; MIC [2]: 2000 µg/mL; MIC (C. albicans): 2500 µg/mL; MIC (E. coli): 2000 µg/mL; MIC (ESBL E. coli): 2000 µg/mL; MIC (ESBL K. pneumoniae): 2500 µg/mL; MIC (K. pneumoniae): 2500 µg/mL
"O=C(O)C(O)Cc1ccccc1 (stereo not shown) [PLA, phenyllactic acid]",2000,2000,2000,5000,–,2500,5000,5000,2500,54.63,19.7,19.65,41.48,66.01,–,"dead cells ([3]; at the determined MIC concentrations, HepG2): 54.63%"
